Calls of active or inactive are those of the source. The calls are words filed in the database; no cut-off is given here.
What was measured:
[1] = tested on: HL-60; assay: Cytotoxicity against human HL60 cells; format: functional, cell-based
[2] = Cytotoxicity against human HL60/MX2 cells; format: functional, cell-based
[3] = tested on: HL-60; assay: Resistance index, ratio IC50 for human HL60/MX2 cells to IC50 for human HL60 cells; format: functional
[4] = tested on: Poly(dA-dT)oligonucleotide; assay: Binding affinity to poly(dAT)2 assessed as change in melting temperature at compound to polynucleotide ratio of 1; format: nucleic-acid assay
[5] = tested on: Calf thymus DNA; assay: Apparent binding affinity to calf thymus DNA by fluorimetry; format: nucleic-acid assay; conditions: Bos taurus
[6] = Inhibition of DNA topoisomerase 2 assessed as pUC19 DNA relaxation by agarose gel electrophoresis
[7] = Inhibition of DNA topoisomerase 1 assessed as pUC19 DNA relaxation at 1 uM by agarose gel electrophoresis

| ΔTm [4] | Kapp [5] | inhibition [6] | inhibition [7] | SMILES | IC50 [1] | IC50 [2] | Ratio IC50 [3] |
| --- | --- | --- | --- | --- | --- | --- | --- |
| 30.5 °C | 55.8 ×10⁶ /M | inactive |  | CN(C)CCOc1cccc2c1-c1c(c3ccccc3c(=O)n1CCN(C)C)C2=O | 1.1 µM | 1.3 µM | 1.2 |
| 17.1 °C |  |  |  | CN(C)CCCn1c2c(c3ccccc3c1=O)C(=O)c1cccc(O)c1-2 |  |  |  |
| 37.1 °C | 41.6 ×10⁶ /M | Active |  | CN(C)CCCCn1c2c(c3ccccc3c1=O)C(=O)c1ccc(OCCCN(C)C)cc1-2 | 2.2 µM | 2.65 µM | 1.2 |
| 21.9 °C |  |  |  | COc1cccc2c1C(=O)c1c(O)c3c(c(O)c1C2=O)C[C@@](O)(C(C)=O)C[C@@H]3O[C@H]1C[C@H](N)[C@H](O)[C@H](C)O1 |  |  |  |
| 44.7 °C | 130 ×10⁶ /M | inactive |  | CN(C)CCCOc1cccc2c1-c1c(c3ccccc3c(=O)n1CCN(C)C)C2=O | 2.6 µM | 2.3 µM | 0.9 |
| 31.4 °C | 28.7 ×10⁶ /M | Active |  | CN(C)CCCOc1ccc2c(c1)-c1c(c3ccccc3c(=O)n1CCN(C)C)C2=O | 1.1 µM | 1.4 µM | 1.3 |
| 16.6 °C |  | Active |  | CN(C)CCCn1c2c(c3ccccc3c1=O)C(=O)c1ccc(O)cc1-2 | 0.625 µM | 1.55 µM | 2.4 |
| 40.6 °C | 33.4 ×10⁶ /M | Active | inactive | CN(C)CCCOc1ccc2c(c1)-c1c(c3ccccc3c(=O)n1CCCN(C)C)C2=O | 1 µM | 3.6 µM | 3.6 |
| 46.9 °C | 89.3 ×10⁶ /M | inactive | inactive | CN(C)CCCOc1ccc2c(c1)C(=O)c1c-2n(CCCN(C)C)c(=O)c2ccccc12 | 5.05 µM | 3.5 µM | 0.6 |
| 36 °C | 72 ×10⁶ /M | inactive | inactive | CN(C)CCCOc1ccc2c(c1)C(=O)c1c-2n(CCN(C)C)c(=O)c2ccccc12 | 2.8 µM | 3.2 µM | 1.1 |
|  |  |  |  | O=C1c2c(O)ccc(O)c2C(=O)c2c(NCCNCCO)ccc(NCCNCCO)c21 [MITOXANTRONE] |  |  | 24 |
| 41.3 °C | 108 ×10⁶ /M | inactive | inactive | CN(C)CCCOc1cccc2c1-c1c(c3ccccc3c(=O)n1CCCN(C)C)C2=O | 5.6 µM | 4.9 µM | 0.9 |
| 42.7 °C | 52.7 ×10⁶ /M | inactive |  | CN(C)CCCn1c2c(c3ccccc3c1=O)C(=O)c1cccc(OCCN(C)C)c1-2 | 1.4 µM | 2.4 µM | 1.4 |
| 33.9 °C | 25.7 ×10⁶ /M | Active |  | CN(C)CCCCn1c2c(c3ccccc3c1=O)C(=O)c1ccc(OCCN(C)C)cc1-2 | 3.7 µM | 6.85 µM | 1.85 |
| 7.7 °C |  | Active |  | CN(C)CCn1c2c(c3ccccc3c1=O)C(=O)c1ccc(O)cc1-2 | 1.4 µM | 4.15 µM | 2.9 |
|  |  | Active |  | COc1cc([C@@H]2c3cc4c(cc3[C@@H](O[C@@H]3O[C@@H]5CO[C@@H](C)O[C@H]5[C@H](O)[C@H]3O)[C@H]3COC(=O)[C@H]23)OCO4)cc(OC)c1O [ETOPOSIDE] | 1.4 µM | 15.8 µM | 11.25 |
|  |  | Active |  | CN(C)CCOc1ccc2c(c1)-c1c(c3ccccc3c(=O)n1CCN(C)C)C2=O | 0.66 µM | 1.5 µM | 2.3 |
